Results reported in patent US20070082075A1, “Traditional chinese medicine preparation for treatment of tumor and method of making and using same” (priority 2003, published 2007).
Where “and” joins values, the source holds several entries; their conditions need not be identical. Identical values can stand only once. Like-named read-outs stand apart in the source and are kept apart here. Marks after values point to notes of the source that are not given here.

Assays:
mice colon carcinoma C26 = conditions: mouse, in vivo, 30 mg/kg
Lewis lung carcinoma = conditions: mouse, in vivo
[1] = tested on: human gastric cancer cell line MKN; conditions: mouse, in vivo
S180 sarcomas = format: in vivo, Kunming mice
[2] = tested on: human liver cancer cell line QGY; conditions: mouse, in vivo

SMILES: O=P1(N(CCCl)CCCl)NCCCO1 (centres unmarked) [cyclophosphamide]
- inhibition ratio % (mice colon carcinoma C26): 91.02*** % and 79.12*** %
- tumor weight x ± SD (mice colon carcinoma C26): 0.22 ± 0.06 and 0.19 ± 0.06
- inhibition ratio % (mice colon carcinoma C26; ip): 91.90*** % and 81.35*** %
- tumor weight x ± SD (mice colon carcinoma C26; ip): 0.22 ± 0.06 and 0.18 ± 0.06
- inhibition ratio % (Lewis lung carcinoma): 88.32*** % and 88.49*** %
- tumor weight x ± SD (Lewis lung carcinoma): 0.25 ± 0.07 and 0.29 ± 0.07
- inhibition ratio % [1]: 88.11*** % and 89.06*** %
- tumor weight x ± SD [1]: 0.17 ± 0.15 and 0.14 ± 0.05
- inhibition rate % (S180 sarcomas; 15.0 mg/kg ip × 7): 45.02*** %
- tumor weight (g) x ± SD (S180 sarcomas; 15.0 mg/kg ip × 7): 1.71 ± 0.25 g
- inhibition rate % (S180 sarcomas; 30.0 mg/kg ip × 7): 84.24*** %
- tumor weight (g) x ± SD (S180 sarcomas; 30.0 mg/kg ip × 7): 0.49 ± 0.12 g
- inhibition ratio % [2]: 88.79*** % and 89.05*** %
- tumor weight x ± SD [2]: 0.25 ± 0.14 and 0.22 ± 0.08
